Patent US6413607B1, “Cyanine dyes” (Kabushiki Kaisha Hayashibara Seibutsu Kagaku Kenkyujo, priority 1999, dated 2002)
Like-named read-outs stand apart in the source and are kept apart here.

How the values were obtained:
Format in all cases: physicochemical
[1] = Light characteristics: visible absorption spectrum in methanol and as thin layer over glass; conditions: for Maximum absorption (nm) CH3OH: dissolved in methanol; for Maximum absorption (nm) Thin Layer: formed into layer over glass; for Shift of absorption maximum compared with conventional related compounds: thin layer, in words
Method: The cyanine dyes as listed in Table 1 of the present invention and known compounds represented by Chemical Formulae 33 and 34 as controls were measured for visible absorption spectrum when dissolved in methanol and formed into layers over glasses.

[2] = Solubility of cyanine dye in TFP; conditions: in TFP at 20° C.
Method: For the cyanine dyes in Table 1, they were measured for solubility in TFP at 20° C.
When coating over the substrates for optical recording media, the cyanine dyes are generally prepared into 0.1-10 w/w % solutions.

[3] = Decomposition point by DTA and TGA; conditions: for Decomposition point (° C.): temperature increase 10° C./min; for Rapidity of decomposition among Chemical Formulae 1, 4 and 6 to 8 / Decomposability at temperatures around decomposition point: in words
Description: An adequate amount of either of the cyanine dyes in Table 1 as a test specimen was placed in a vessel and subjected to conventional differential thermal analysis (hereinafter abbreviated as “DTA”) and thermogravimetric analysis (hereinafter abbreviated as “TGA”) using “MODEL TG/DTA 220”, a digital thermo analyzer commercialized by Seiko Instruments Inc., Tokyo, Japan, to determine the melting point, i.e., a temperature at which the cyanine dyes as test specimens begin to absorb heat on […], and to determine the decomposition point, i.e., a temperature at which the cyanine dyes as test specimens begin to lose weight on […]. In parallel, conventional related compounds represented by Chemical Formulae 33 and 34 were analyzed similarly as above. FIGS. 2 and 3 are respectively the results of the cyanine dye represented by Chemical Formula 4 of the present invention and conventional related compound represented by Chemical Formula 34. In DTA and TGA, the environmental temperature was set to an increasing temperature mode at a rate of 10° C./min.
As evident from Table 1 and FIGS. 2 and 3, all the conventional related compounds had melting points and decomposition points which were different from each other, and very slowly decomposed at temperatures around their decomposition points. […] Most specifically, conventional known compounds had both melting points and decomposition points which were different from each other, i.e., the difference ranged from 17 to 108° C., while most of the cyanine dyes of the present invention had decomposition points which were undistinguishable from their melting points or had only the decomposition points.

[4] = Decomposition rate: differential calorimetric curve (DSC), half value width; conditions: for Calorific value / Decomposition initiating point / Decomposition peak point / Half value width: DSC, 10° C./min; for Calorific value / Decomposition initiating point / Decomposition peak point: nitrogen atmosphere; for Half value width: width of decomposition peak at half calorific value, nitrogen
Method: For the cyanine dyes represented by Chemical Formulae 4, 6 and 8 of the present invention, they were in a usual manner examined for differential calorimetric curve when heated under an increasing temperature rate of 10° C./min and nitrogen atmospheric conditions using “MODEL DSC220U”, a digital thermo analyzer commercialized by Seiko Instruments Inc., Tokyo, Japan. In parallel, conventional cyanine dye represented by Chemical Formula 33 was examined for differential calorimetric curve similarly as above. FIGS. 4 and 5 are respectively differential calorimetric curves for the cyanine dyes represented by Chemical Formulae 4 and 33.
Based on the results of the differential calorimetric curves, the half calorific vallues at descomposition peaks for each cyanine dyes were determined, and the thermal difference between the two points, having the determined half calorific values at both ends of each descomposition peaks (hereinafter designated as “a half value width”), was determined.
As evident from the results in Table 2 and FIGS. 4 and 5, the cyanine dyes of the present invention instantly and promptly decomposed in spite of their substantially the same calorific-values as compared with conventional one. […] Similarly as in conventional related compounds represented by Formulae 33 and 34, dyes with a relatively-slow decomposition rate are substantially difficult to form stable minute pits at a relatively-high density on a restricted recording surface of high-density optical recording media such as DVD-Rs, as mentioned above. Varying depending on glass transition temperature of substrate, when used as a light absorbent in optical recording media, dyes with a lower decomposition point can be generally used to write information by using a lower-power laser beam as a merit, however, as a demerit, when exposed to laser beam for a relatively-long period of time on reading, the dyes tend to accumulate heat and deform parts around pits and other parts free of pit on recording surfaces, resulting in large jitters and reading errors. The cyanine dyes of the present invention substantially absorb a visible light with a wavelength around 650 nm when formed into a thin layer, have decomposition points which are undistinguishable from their melting points or only have the decomposition points of relatively-high temperatures, and have an outstandingly-high decomposition rate at around the decomposition points. These characteristics mean that high-density optical recording media, having a relatively-small jitter, insubstantial reading error, and satisfactory stability of exposure to environmental light such as reading light and natural light, can be obtained by using the cyanine dyes of the present invention as light absorbents. The reason of why the half value width was employed as an index for the decomposability in this example was due to the fact that it can effectively evaluate the decomposition rate of test specimens.

| Maximum absorption (nm) CH3OH [1] [nm] | Maximum absorption (nm) Thin Layer [1] [nm] | Solubility [2] [mg/mL] | Decomposition point (° C.) [3] [°C] | Calorific value [4] [mJ/mg] | Decomposition initiating point [4] [°C] | Decomposition peak point [4] [°C] | Half value width [4] [°C] | Rapidity of decomposition among Chemical Formulae 1, 4 and 6 to 8 [3] | Half value width as level of that of conventional cyanine dye ([4]; relative to Chemical Formula 33) | Compound | Shift of absorption maximum compared with conventional related compounds [1] | Solubility ([2]; organic solvent or mixture, read-out: Solubility) [mg/mL] | Decomposability at temperatures around decomposition point [3] |
| --- | --- | --- | --- | --- | --- | --- | --- | --- | --- | --- | --- | --- | --- |
| 591 | 591 | >200 | 273.5 | – | – | – | – | – | – | CCCCN1C(=CC=CC2=[N+](C)c3ccc(S(=O)(=O)N(CC)CC)cc3C2(C)C)C(C)(C)c2c1ccc1ccccc21.F[P-](F)(F)(F)(F)F [Chemical Formula 23] | – | – | – |
| 570 | 594 | 127 | 257.3 | – | – | – | – | – | – | CCCCN1C(=CC=CC2=[N+](C)c3ccc(S(=O)(=O)N(CC)CC)cc3C2(C)C)C(C)(C)c2c1ccc1ccccc21.O=[N+]([O-])c1ccc2c(c1)N=Nc1c(ccc3ccccc13)[O][Ni-]1([O]2)[O]c2ccc([N+](=O)[O-])cc2N=Nc2c(ccc3ccccc23)[O]1 [Chemical Formula 26] | – | – | – |
| 540 | 557 | 22 | 271.3 | – | – | – | – | – | – | CCCCN1C(=CC=CC2=[N+](C)c3ccc([N+](=O)[O-])cc3C2(C)C)C(C)(C)c2c1ccc1ccccc21.CCN(CC)c1ccc2c(c1)[O][Co-]1([O]c3ccc([N+](=O)[O-])cc3N=N2)[O]c2ccc([N+](=O)[O-])cc2N=Nc2ccc(N(CC)CC)cc2[O]1 [Chemical Formula 3] | – | – | – |
| 577 | 609 | 245 | 262.4 | 1663 | 249.9 | 273.5 | 32.2 | – | – | CCCCN1C(=CC=CC2=[N+](CCCC)c3ccc([N+](=O)[O-])cc3C2(C)C)C(C)(C)c2c1ccc1ccccc21.[O-][Cl+3]([O-])([O-])[O-] [Chemical Formula 8] | shifted their absorption maxima to longer wavelengths by a large margin | – | – |
| 578 | 609 | 164 | – | 1827 | 279.5 | 285.5 | 13.2 | decomposed most rapidly | – | CCCN1C(=CC=CC2=[N+](CCC)c3ccc([N+](=O)[O-])cc3C2(C)C)C(C)(C)c2c1ccc1ccccc21.[O-][Cl+3]([O-])([O-])[O-] [Chemical Formula 6] | shifted their absorption maxima to longer wavelengths by a large margin | – | – |
| 538 | 556 | 197 | – | – | – | – | – | – | – | CCCCN1C(=CC=CC2=[N+](C)c3ccc(S(=O)(=O)N(CC)CC)cc3C2(C)C)C(C)(C)c2c1ccc1ccccc21.CCN(CC)c1ccc2c(c1)[O][Co-]1([O]c3ccc([N+](=O)[O-])cc3N=N2)[O]c2ccc([N+](=O)[O-])cc2N=Nc2ccc(N(CC)CC)cc2[O]1 [Chemical Formula 24] | – | – | – |
| 571 | 592 | >200 | – | – | – | – | – | – | – | CCN1C(=CC=CC2=[N+](CC)c3ccc(S(=O)(=O)N(CC)CC)cc3C2(C)C)C(C)(C)c2c1ccc1ccccc21.[O-][Cl+3]([O-])([O-])[O-] [Chemical Formula 27] | – | – | – |
| 576 | 609 | 126 | – | 1826 | 295.8 | 298.6 | 7.7 | decomposed most rapidly | ⅙ | CCN1C(=CC=CC2=[N+](CC)c3ccc([N+](=O)[O-])cc3C2(C)C)C(C)(C)c2c1ccc1ccccc21.[O-][Cl+3]([O-])([O-])[O-] [Chemical Formula 4] | shifted their absorption maxima to longer wavelengths by a large margin | – | instantly decomposed at once |
| 562 | 617 | 229 | 270.7 | – | – | – | – | – | – | CCN1C(=CC=CC2=[N+](CC)c3ccc([N+](=O)[O-])cc3C2(C)C)C(C)(C)c2ccc3ccccc3c21.[O-][Cl+3]([O-])([O-])[O-] [Chemical Formula 15] | shifted their absorption maxima to longer wavelengths by a large margin | – | – |
| 577 | 609 | 210 | 261.2 | – | – | – | – | decomposed most rapidly | – | CCCCN1C(=CC=CC2=[N+](CCC)c3ccc([N+](=O)[O-])cc3C2(C)C)C(C)(C)c2c1ccc1ccccc21.[O-][Cl+3]([O-])([O-])[O-] [Chemical Formula 7] | shifted their absorption maxima to longer wavelengths by a large margin | – | – |

| Compound | Maximum absorption (nm) CH3OH [1] [nm] | Maximum absorption (nm) Thin Layer [1] [nm] | Solubility [2] [mg/mL] | Decomposition point (° C.) [3] [°C] | Calorific value [4] [mJ/mg] | Decomposition initiating point [4] [°C] | Decomposition peak point [4] [°C] | Half value width [4] [°C] | Rapidity of decomposition among Chemical Formulae 1, 4 and 6 to 8 [3] | Half value width as level of that of conventional cyanine dye ([4]; relative to Chemical Formula 33) | Shift of absorption maximum compared with conventional related compounds [1] | Solubility ([2]; organic solvent or mixture, read-out: Solubility) [mg/mL] | Decomposability at temperatures around decomposition point [3] |
| --- | --- | --- | --- | --- | --- | --- | --- | --- | --- | --- | --- | --- | --- |
| CCCCN1/C(=C/C=C/C2=[N+](CCCC)c3ccccc3C2(C)C)C(C)(C)c2c1ccc1ccccc21 [Chemical Formula 33, reference compound] | 568 | 600 | – | 268.1 | 1467 | 255.4 | 297.4 | 49.9 | – | – | – | – | – |
| CCCCN1/C(=C/C=C/C2=[N+](CCCC)c3ccc(C)cc3C2(C)C)C(C)(C)c2c1ccc1ccccc21 [Chemical Formula 34, reference compound] | 574 | 599 | – | 267 | – | – | – | – | – | – | – | – | – |
| CN1C(=CC=CC2=[N+](C)c3ccc([N+](=O)[O-])cc3C2(C)C)C(C)(C)c2c1ccc1ccccc21 [Chemical Formula 1] | 573 | 609 | – | – | – | – | – | – | decomposed most rapidly | – | shifted their absorption maxima to longer wavelengths by a large margin | 36 | instantly decomposed at once |
